From US10899738B2 (THE REGENTS OF THE UNIVERSITY OF MICHIGAN, priority 2016, dated 2021)

Target: menin protein (Homo sapiens (Human), UniProt O00255)
Assay: biochemical
Format: binding
Conditions: FP competitive binding; menin protein 4 nM, FAM-MM2 probe 2 nM
Method: A fluorescence polarization (FP) competitive binding assay was used to determine the binding affinities of representative menin inhibitors. A FAM labeled fluorescent probe was designed and synthesized based on a MLL1 peptide (FAM-MM2). Equilibrium dissociation constant (Kd) value of FAM-MM2 to menin protein was determined from protein saturation experiments by monitoring the total fluorescence polarization of mixtures composed with the fluorescent probe at a fixed concentration and the protein with increasing concentrations up to full saturation. Serial dilutions of the protein were mixed with FAM-MM2 to a final volume of 200 μl in the assay buffer (PBS with 0.02% Bovine γ-Globulin and 4% DMSO. 0.01% Triton X-100 was added right before assays). Final FAM-MM2 concentration was 2 nM. Plates were incubated at room temperature for 30 minutes with gentle shaking to assure equilibrium.
The IC50, see Table 3, and Ki values of representative Compounds of the Disclosure were determined in a competitive binding experiment. Mixtures of 5 μl of the tested compounds in DMSO and 195 μl of preincubated protein/probe complex solution in the assay buffer were added into assay plates which were incubated at room temperature for 30 minutes with gentle shaking. Final concentration of the menin protein was 4 nM, and final probe concentration is 2 nM. […] FP values were measured as described above. IC50 values were determined by nonlinear regression fitting of the competition curves.

menin protein, sequence (O00255 whole entry): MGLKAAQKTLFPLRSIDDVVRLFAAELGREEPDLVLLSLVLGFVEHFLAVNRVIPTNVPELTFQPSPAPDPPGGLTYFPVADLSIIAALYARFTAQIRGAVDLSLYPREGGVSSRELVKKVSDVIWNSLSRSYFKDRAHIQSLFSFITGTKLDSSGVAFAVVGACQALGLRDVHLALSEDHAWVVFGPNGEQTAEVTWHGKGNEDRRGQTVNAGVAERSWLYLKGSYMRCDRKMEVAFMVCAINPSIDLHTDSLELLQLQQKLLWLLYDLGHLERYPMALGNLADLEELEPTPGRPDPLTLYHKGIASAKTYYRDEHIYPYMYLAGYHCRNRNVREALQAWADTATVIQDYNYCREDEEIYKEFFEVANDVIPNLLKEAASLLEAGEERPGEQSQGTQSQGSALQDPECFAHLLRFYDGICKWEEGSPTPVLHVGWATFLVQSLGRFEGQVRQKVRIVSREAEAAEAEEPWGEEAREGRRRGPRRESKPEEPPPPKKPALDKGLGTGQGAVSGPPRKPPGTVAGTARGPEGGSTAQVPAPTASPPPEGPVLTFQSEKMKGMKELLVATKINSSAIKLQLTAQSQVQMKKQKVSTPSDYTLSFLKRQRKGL

| SMILES | Menin Binding Affinity IC50 (μM) |
| --- | --- |
| N#Cc1ccc(OCCCN2CC(C3(C4CCCC4)c4ccccc4CCN3CCCOc3ccc(C#N)cc3)C2)cc1 (stereo not drawn) [compound 61] | No inhibition |
| COC1CCC(C2(C3CCN(CCCOc4ccc(C#N)cc4)CC3)C(=O)NCc3ccccc32)C1 (stereo not drawn) [compound 26, 4-(3-(4-(4-(3-methoxycyclopentyl)-3-oxo-1,2,3,4-tetrahydroisoquinolin-4-yl)piperidin-1-yl)propoxy)benzonitrile] | No inhibition |

Same assay, conditions: FP competitive binding; menin protein 4 nM, FAM-MM2 probe 2 nM; read-out: Menin Binding Affinity IC50

| SMILES | IC50 [nM] |
| --- | --- |
| N#Cc1cc2cc(C(=O)N[C@H]3CC[C@H](C4(C5CCCC5)NCCc5ccccc54)CC3)ccc2[nH]1 (stereo partly drawn) [compound 80, 2-cyano-N-((1r,4r)-4-(1-cyclopentyl-1,2,3,4-tetrahydroisoquinolin-1-yl)cyclohexyl)-1H-indole-5-carboxamide] | 11600 |
| CN1Cc2cccc(F)c2C(C2CCCC2)(C2CCN(CC3CN(c4ccc(C#N)cc4)C3)CC2)C1 (stereo not drawn) [compound 33, 4-(3-((4-(4-cyclopentyl-5-fluoro-2-methyl-1,2,3,4-tetrahydroisoquinolin-4-yl)piperidin-1-yl)methyl)azetidin-1-yl)benzonitrile] | 19 |
| CNC(=O)O[C@@H]1CCC[C@H]1C(C#N)(c1ccccc1)C1CCN(C2CCN(c3ccc(S(=O)(=O)c4ccccc4)cc3)CC2)CC1 (mixture of isomers) [compound 235, rac-(1R,2S)-2-(cyano(phenyl)(1′-(4-(phenylsulfonyl)phenyl)-[1,4′-bipiperidin]-4-yl)methyl)cyclopentyl methylcarbamate] | 6200 |
| CO[C@H]1CCC[C@H]1C(C#N)(c1ccccc1)C1CCN(CCCOc2ccc(C#N)cc2)CC1 (mixture of isomers) [compound 176, rac-4-(3-(4-(cyano((1S,2S)-2-methoxycyclopentyl)(phenyl)methyl)piperidin-1-yl)propoxy)benzonitrile] | 140000 |
| COC(=O)N[C@H]1CCC[C@@H]1C(C#N)(c1ccccc1)C1CCN(CC2CN(c3ccccc3)C2)CC1 (mixture of isomers) [compound 402, methyl rac-((1S,2R)-2-(cyano(phenyl)(1-((1-phenylazetidin-3-yl)methyl)piperidin-4-yl)methyl)cyclopentyl) carbamate] | 2400 |
| N#CC(c1ccccc1)(C1CCN(CC2CN(c3ccc(S(=O)(=O)c4ccncc4)cc3)C2)CC1)[C@@H]1CCC[C@H]1OC(N)=O (mixture of isomers) [compound 212, rac-(1R,2S)-2-(cyano(phenyl)(1-((1-(4-(pyridin-4-ylsulfonyl)phenyl)azetidin-3-yl)methyl)piperidin-4-yl)methyl)cyclopentyl carbamate] | 454 |
| CNC(=O)N[C@@H]1CCC[C@H]1C(C#N)(c1ccccc1)C1CCN(CC2CN(c3ccc(S(=O)(=O)c4ccncc4)cc3)C2)CC1 (mixture of isomers) [compound 270, rac-1-((1R,2S)-2-(cyano(phenyl)(1-((1-(4-(pyridin-4-ylsulfonyl)phenyl)azetidin-3-yl)methyl)piperidin-4-yl)methyl)cyclopentyl)-3-methylurea] | 881 |
| CC(=O)OC[C@@H]1CCC[C@H]1C(C#N)(c1ccccc1)C1CCN(CC2CN(c3ccc(S(=O)(=O)C4CC4)cc3)C2)CC1 (mixture of isomers) [compound 262, rac-((1R,2R)-2-(cyano(1-((1-(4-(cyclopropylsulfonyl)phenyl)azetidin-3-yl)methyl)piperidin-4-yl)(phenyl)methyl)cyclopentyl) methyl acetate] | 6900 |
| C[C@@H]1CC(C(C#N)(c2ccccc2)C2CCCC2)C[C@H](C)N1CCCOc1ccc(C#N)cc1 (stereo partly drawn) [compound 121, 4-(3-((2S,6R)-4-(cyano(cyclopentyl)(phenyl)methyl)-2,6-dimethylpiperidin-1-yl)propoxy)benzonitrile] | 13100 |
| COC(=O)N[C@@H]1CCC[C@H]1C(C#N)(c1ccccc1)C1CCN(CC2CN(c3ccc(S(=O)(=O)c4ccccc4)cc3)C2)CC1 (mixture of isomers) [compound 348, methyl (rac-(1R,2S)-2-(cyano(phenyl)(1-((1-(4-(phenylsulfonyl)phenyl)azetidin-3-yl)methyl)piperidin-4-yl)methyl)cyclopentyl) carbamate] | 819 |
| CC(=O)N1CCC[C@H]1C(C#N)(c1ccccc1)C1CCN(CCCOc2ccc(C#N)cc2)CC1 (stereo partly drawn) [compound 330, 4-(3-(4-(((S)-1-acetylpyrrolidin-2-yl)(cyano)(phenyl)methyl)piperidin-1-yl)propoxy)benzonitrile] | 111000 |
| CCN1Cc2ccccc2C(C2CCCC2)(C2CCN(CC3CN(c4ccc(S(=O)(=O)C5CC5)cc4C)C3)CC2)C1 (stereo not drawn) [compound 96, 4-cyclopentyl-4-(1-((1-(4-(cyclopropylsulfonyl)-2-methylphenyl)azetidin-3-yl)methyl)piperidin-4-yl)-2-ethyl-1,2,3,4-tetrahydroisoquinoline] | 587 |
| CNC(=O)O[C@H]1CCC[C@@H]1C(C#N)(c1ccccc1)C1CCN(CC2CN(c3ccc([N+](=O)[O-])cc3)C2)CC1 (mixture of isomers) [compound 385, rac-(1S,2R)-2-(cyano(1-((1-(4-nitrophenyl)azetidin-3-yl)methyl)piperidin-4-yl)(phenyl)methyl)cyclopentyl methylcarbamate] | 13 |
| CC(C)CC1(C2CCN(CCCOc3ccc(C#N)cc3)CC2)NCCc2ccccc21 (stereo not drawn) [compound 242, 4-(3-(4-(1-isobutyl-1,2,3,4-tetrahydroisoquinolin-1-yl)piperidin-1-yl)propoxy)benzontrile] | 2100 |
| O=S(=O)(c1ccc(N2CC(CN3CCC(C4(C5CCCC5)CN(CCF)Cc5ccccc54)CC3)C2)cc1)C1CC1 (stereo not drawn) [compound 47, 4-cyclopentyl-4-(1-((1-(4-(cyclopropylsulfonyl)phenyl)azetidin-3-yl)methyl)piperidin-4-yl)-2-(2-fluoroethyl)-1,2,3,4-tetrahydroisoquinoline] | 137 |
| Cn1cc(S(=O)(=O)c2ccc(N3CC(CN4CCC(C(CN5CCCC5)(C5=CCCC5)c5ccccc5)CC4)C3)cc2)cn1 (stereo not drawn) [compound 357, 4-(1-(cyclopent-1-en-1-yl)-1-phenyl-2-(pyrrolidin-1-yl)ethyl)-1-((1-(4-((1-methyl-1H-pyrazol-4-yl)sulfonyl)phenyl)azetidin-3-yl)methyl)piperidine] | 32 |
| CC(=O)O[C@@H]1CCC[C@H]1C(C#N)(c1ccccc1F)C1CCN(CCCOc2ccc(C#N)cc2)CC1 (mixture of isomers) [compound 309, rac-(1R,2S)-2-(cyano(1-(3-(4-cyanophenoxy)propyl)piperidin-4-yl)(2-fluorophenyl)methyl) cyclopentyl acetate] | 11400 |
| CNC(=O)O[C@@H]1CCC[C@H]1C(Cn1cccc1)(c1ccccc1)C1CCN(CC2CN(c3ccc(S(=O)(=O)c4ccccc4)cc3)C2)CC1 (mixture of isomers) [compound 358, rac-(1R,2S)-2-(1-phenyl-1-(1-((1-(4-(phenylsulfonyl)phenyl)azetidin-3-yl)methyl)piperidin-4-yl)-2-(1H-pyrrol-1-yl)ethyl)cyclopentyl methylcarbamate] | 221 |
| CC(=O)O[C@@H]1CCC[C@H]1C(C#N)(c1ccccc1)C1CCN(CC2CN(c3ccc(S(=O)(=O)c4ccnc(C)c4)cc3)C2)CC1 (mixture of isomers) [compound 200, rac-(1R,2S)-2-(cyano(1-((1-(4-((2-methylpyridin-4-yl)sulfonyl)phenyl)azetidin-3-yl)methyl)piperidin-4-yl)(phenyl)methyl)cyclopentyl acetate] | 17 |
